Data set [1] deals with HLA-A2+ normal human primary cells.
Source text: After elution, dissociation, filtration, and cleanup, peptides were lyophilized before further analysis. Transition parameters for each epitope peptide were examined and curated through Valid-NEO method builder bioinformatic pipeline to exclude ions with excessive noise due to coelution with impurities and to boost up the detectability through recursive optimizations of significant ions.
A further data set relates to CD8+ naive T cells. Briefly: PBMCs priming assay on HLA-A*02:01 healthy donors with dextramer analysis. The data set is classed as cell-based, human.

No end group written: not given here.

With LLLEATANL [PR3], the “presentation of epitope at the cell surface (MS transitions)” value in data set [1] was “not presented by normal cells”.

For the sequence SLTDLYLRI [PR5], the “donors in which priming of peptide specific CD8+ T cells was identified” value in the data set with CD8+ naive T cells (12 different donors, FIG. 2B) is 2 donors. In addition, the “dextramer positive CD8+ T cells” value in the data set with CD8+ naive T cells (after 12 days priming with peptide pulsed MoDCs, FIG. 2A) was determined as 0.068%.
